Where two headings read alike, the source gives them in different places.
Tests used:
[1] = system: FADD-deficient Jurkat cells; assay: TNF-α-induced necroptosis, cell viability (CellTiter Glo); type: cell-based, human; conditions: 10 ng/ml TNF-α overnight
Protocol: (§1) Cells were seeded in 12-, 24- or 96-well plates at proper cell density. For necroptosis or apoptosis assays, cells were incubated with the indicated compound combinations at concentrations stated for 14–24 h. Smac mimetic and z-VAD-FMK were added 30–60 min before treatment with TNF-α, FasL or TRAIL. Cell viability was determined using CellTiter Glo Luminescent Cell Viability Assay (Promega, Fitchburg, WI, USA) according to the manufacturer's instructions. Luminescence was recorded with a SpectraMax M5Multimode plate reader (Molecular Devices, Sunnyvale, CA, USA). For flow cytometry-based determination of viability, cells were harvested, collected by centrifugation, washed once and resuspended in staining buffer (1 × PBS, 10% FBS). Cells were incubated with 0.5 μg/ml PI for 10 min at room temperature (RT) in the dark. Flow cytometric analyses were performed on an LSR Fortessa (BD Biosciences) and analyzed with FlowJo software version 7.6.3 (Tree Star Inc, Ashland, OR, USA). Cell size was evaluated by forward scatter. PI-negative normal-sized cells were considered living and data were normalized to values of untreated controls.
The compounds were transferred into drug plates by acoustic droplet ejection using an Echo 520 liquid handler (LABCYTE, Sunnyvale, CA, USA). Necroptosis was induced in FADD-deficient Jurkat cells by addition of 10 ng/ml TNF-α immediately before seeding onto drug plates at a density of 1x10^4 cells/well. After 16 h incubation, cell viability was determined using CellTiter Glo Luminescent Cell Viability Assay according to manufacturer's instructions. Data analysis was performed by calculating a percentage of control to normalize for variability across different plates. The signal for the negative control DMSO wells was set to 0%, whereas the wells containing the positive control Nec-1 were put to 100% for each plate individually.

[2] = system: 3T3-SA cells; assay: TNF-α/z-VAD (TZ)-induced necroptosis; type: cell-based, murine; conditions: Supplementary Figures 3a, b
Protocol: as §1, with “controls. For detection of apoptosis, cells were resuspended in Annexin V Binding Buffer (BioLegend, San Diego, CA, USA) and stained with 0.5 μg/ml PI and Alexa Fluor 647 Annexin V (BioLegend) according to manufacturer's instructions.” for “controls.”

[3] = biological target: T1, recombinant RIPK1 (Homo sapiens, UniProt Q13546); assay: Recombinant kinase assay; type: biochemical; conditions: 50 μM ATP; Supplementary Figure 4b
T1 construct: purchased Signalchem R07-10G
T1 sequence (Q13546 1-327 limits assumed): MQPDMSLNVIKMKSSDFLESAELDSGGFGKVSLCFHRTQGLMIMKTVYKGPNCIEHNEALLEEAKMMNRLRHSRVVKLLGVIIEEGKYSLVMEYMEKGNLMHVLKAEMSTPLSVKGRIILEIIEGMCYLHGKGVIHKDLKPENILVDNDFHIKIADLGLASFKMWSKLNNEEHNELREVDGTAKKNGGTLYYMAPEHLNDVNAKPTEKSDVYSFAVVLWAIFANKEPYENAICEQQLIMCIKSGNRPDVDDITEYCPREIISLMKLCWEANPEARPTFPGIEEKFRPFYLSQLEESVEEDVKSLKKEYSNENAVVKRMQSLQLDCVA
Protocol: (§2) Recombinant RIPK1 or RIPK3 protein was incubated with the substrate MBP in kinase assay buffer (40 mM Tris-HCl pH 7.5, 10 mM MgCl2 and 1 mM DTT) in presence of 50 μM ATP, 5 μCi [γ-32 P]ATP and the indicated inhibitors in a total volume of 20 μl. […] The terminated reactions were spotted onto a SAM2 Biotin Capture membrane (Promega) and further processed according to the manufacturer's instructions. […] Data were normalized to a DMSO-treated control sample. For autoradiography, the reactions were stopped by addition of 5 μl 4x Laemmli buffer and incubated for 5 min at 95 °C.

[4] = system: HT-29 MLKL S358D cells; assay: Cell death driven by doxycycline-induced MLKL S358D expression; type: cell-based, human; conditions: 2 μg/ml doxycycline overnight; 10 μM NSA, 0.5 μM ponatinib
Protocol: as §1, with “controls. For detection of apoptosis, cells were resuspended in Annexin V Binding Buffer (BioLegend, San Diego, CA, USA) and stained with 0.5 μg/ml PI and Alexa Fluor 647 Annexin V (BioLegend) according to manufacturer's instructions.” for “controls.”

[5] = system: FADD-deficient Jurkat cells; assay: Drug toxicity, cell viability without TNF-α; type: cell-based; conditions: Homo sapiens, 24 h, no TNF-α, CellTiter Glo
Protocol: as §1, with “controls. For detection of apoptosis, cells were resuspended in Annexin V Binding Buffer (BioLegend, San Diego, CA, USA) and stained with 0.5 μg/ml PI and Alexa Fluor 647 Annexin V (BioLegend) according to manufacturer's instructions.” for “controls.”

[6] = biological target: RIPK3 (Homo sapiens, UniProt Q9Y572); assay: Recombinant kinase assay; type: biochemical; parameters: purchased Signalchem R09-10G
RIPK3, sequence (Q9Y572 whole entry): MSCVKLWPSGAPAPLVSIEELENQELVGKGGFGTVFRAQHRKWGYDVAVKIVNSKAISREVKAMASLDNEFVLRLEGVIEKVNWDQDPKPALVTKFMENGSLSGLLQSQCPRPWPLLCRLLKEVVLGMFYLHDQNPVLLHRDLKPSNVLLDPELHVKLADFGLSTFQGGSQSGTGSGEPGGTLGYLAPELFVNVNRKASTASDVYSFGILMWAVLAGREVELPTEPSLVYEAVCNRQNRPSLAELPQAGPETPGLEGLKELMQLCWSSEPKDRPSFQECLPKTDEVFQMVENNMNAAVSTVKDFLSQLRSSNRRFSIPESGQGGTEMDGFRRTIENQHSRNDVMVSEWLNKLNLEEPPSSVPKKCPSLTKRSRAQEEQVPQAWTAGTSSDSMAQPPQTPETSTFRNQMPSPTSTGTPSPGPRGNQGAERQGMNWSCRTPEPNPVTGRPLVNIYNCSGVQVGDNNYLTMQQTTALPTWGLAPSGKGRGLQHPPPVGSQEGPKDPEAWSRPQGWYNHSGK
Protocol: as §2

[7] = system: HT-29 cells; assay: TNF-α/Smac mimetic/z-VAD-FMK (TSZ)-induced necroptosis, cell viability; type: cell-based, human; conditions: Homo sapiens, HT-29; TSZ treatment; read-out: EC50 (necroptosis block)
Protocol: as §1

[8] = system: 3T3-SA or L929 cells; assay: Drug toxicity dose-response, Supplementary Figure 3; type: cell-based, murine; conditions: Mus musculus, read-out: IC50 (printed in Supplementary Figure 3)
Protocol: as §1, with “controls. For detection of apoptosis, cells were resuspended in Annexin V Binding Buffer (BioLegend, San Diego, CA, USA) and stained with 0.5 μg/ml PI and Alexa Fluor 647 Annexin V (BioLegend) according to manufacturer's instructions.” for “controls.”

[9] = system: HT-29 cells; assay: Drug toxicity, cell viability 24 h; type: cell-based; conditions: Homo sapiens, HT-29, 24 h
Protocol: as §1

[10] = system: L929 cells; assay: TNF-α/z-VAD-FMK-induced necroptosis; type: cell-based, murine; conditions: Supplementary Figures 3c, d
Protocol: as §1, with “controls. For detection of apoptosis, cells were resuspended in Annexin V Binding Buffer (BioLegend, San Diego, CA, USA) and stained with 0.5 μg/ml PI and Alexa Fluor 647 Annexin V (BioLegend) according to manufacturer's instructions.” for “controls.”

| Compound | block of necroptosis compared with ponatinib ([1]; Figure 3b) | block of necroptotic cell death [2] | RIPK1 kinase activity (MBP phosphorylation) [3] | block of cell death driven by MLKL S358D expression [4] | IC50 [5] [nM] | RIPK3 kinase activity (MBP phosphorylation) ([6]; 50 μM ATP, Figure 4e inhibitors at 10 μM) | RIPK3 autophosphorylation ([6]; autoradiography, Supplementary Figure 4c) | EC50 [7] [nM] | IC50 [8] [nM] | IC50 ([9]; read-out: IC50 (printed in Figure 2e)) [µM] | IC50 ([9]; read-out: IC50 (toxicity)) [µM] | rescue of cell viability in drug screen ([1]; 0.5 and 1.5 μM) | EC50 ([1]; Homo sapiens, Jurkat, CellTiter Glo, read-out: EC50 for inhibiting necroptosis) [nM] | protection from necroptosis [10] |
| --- | --- | --- | --- | --- | --- | --- | --- | --- | --- | --- | --- | --- | --- | --- |
| Cc1ccc(C(=O)Nc2ccc(CN3CCN(CCCN)CC3)c(C(F)(F)F)c2)cc1C#Cc1cnc2cccnn12 [c-ponatinib] | blocked necroptosis with only a minor reduction in potency | – | – | – | – | – | – | – | – | – | – | – | – | – |
| Cc1ccc(C(=O)Nc2ccc(CN3CCN(C)CC3)c(C(F)(F)F)c2)cc1C#Cc1cnc2cccnn12 [ponatinib, Ponatinib] | – | capable of blocking necroptotic cell death with comparable potency | strongly blocked phosphorylation | did not prevent cell death | 1600 | strongly blocked phosphorylation | efficiently blocked | 50 | 1100 | 8.89 | 8.9 | robustly rescued cell viability at both concentrations | 89 | the effect was partial and confined to a small dosage window around 100 nM |

Source: PMC4669708 (Cell Death & Disease, 2015)
